Assay results taken from PubChem BioAssay (NCI).
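Cells were grown in 96-well plates and exposed to each compound for 48 hours at five concentrations; endpoints were interpolated linearly between bracketing concentrations, or set to the highest concentration if not reached. Here, GI50 denotes the concentration required for 50% inhibition of growth. Definition used: TGI = concentration required for complete inhibition of growth.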

Experiments:
Assay in all cases: NCI anticancer screen, dose series, 48 h
786-0 renal = system: 786-0 renal
CAKI-1 renal = system: CAKI-1 renal
NCI-H23 lung = system: NCI-H23 lung
SN12C renal = system: SN12C renal
MCF7 breast = system: MCF7 breast
HOP-92 NSCLC = system: HOP-92 NSCLC
SNB-19 CNS = system: SNB-19 CNS
MOLT-4 leukemia = system: MOLT-4 leukemia
UO-31 renal = system: UO-31 renal
SR leukemia = system: SR leukemia
SNB-75 CNS = system: SNB-75 CNS
HS 578T breast = system: HS 578T breast
NCI/ADR-RES ovarian = system: NCI/ADR-RES ovarian
T-47D breast = system: T-47D breast
LOX IMVI melanoma = system: LOX IMVI melanoma
HCC-2998 colon = system: HCC-2998 colon
SK-OV-3 ovarian = system: SK-OV-3 ovarian
OVCAR-5 ovarian = system: OVCAR-5 ovarian
NCI-H460 lung = system: NCI-H460 lung
ACHN renal = system: ACHN renal
UACC-62 melanoma = system: UACC-62 melanoma
M14 melanoma = system: M14 melanoma
PC-3 prostate = system: PC-3 prostate
SF-268 CNS = system: SF-268 CNS
HL-60(TB) leukemia = system: HL-60(TB) leukemia
RPMI-8226 leukemia = system: RPMI-8226 leukemia
SK-MEL-28 melanoma = system: SK-MEL-28 melanoma
SK-MEL-5 melanoma = system: SK-MEL-5 melanoma
HOP-62 NSCLC = system: HOP-62 NSCLC
HCT-15 colon = system: HCT-15 colon
SF-295 CNS = system: SF-295 CNS
NCI-H522 lung = system: NCI-H522 lung
U251 CNS = system: U251 CNS
SF-539 CNS = system: SF-539 CNS
A549 NSCLC = system: A549 NSCLC
A498 renal = system: A498 renal
CCRF-CEM leukemia = system: CCRF-CEM leukemia
SW-620 colon = system: SW-620 colon
BT-549 breast = system: BT-549 breast
HT29 colon = system: HT29 colon
NCI-H226 lung = system: NCI-H226 lung
TK-10 renal = system: TK-10 renal
HCT-116 colon = system: HCT-116 colon
EKVX NSCLC = system: EKVX NSCLC
RXF 393 renal = system: RXF 393 renal
IGROV1 ovarian = system: IGROV1 ovarian
OVCAR-8 ovarian = system: OVCAR-8 ovarian
OVCAR-3 ovarian = system: OVCAR-3 ovarian
UACC-257 melanoma = system: UACC-257 melanoma
KM12 colon = system: KM12 colon
COLO 205 colon = system: COLO 205 colon
OVCAR-4 ovarian = system: OVCAR-4 ovarian
K-562 leukemia = system: K-562 leukemia
MALME-3M melanoma = system: MALME-3M melanoma
MDA-MB-231 breast = system: MDA-MB-231 breast
MDA-MB-435 = system: MDA-MB-435
DU-145 prostate = system: DU-145 prostate
SK-MEL-2 melanoma = system: SK-MEL-2 melanoma

Nc1n[nH]c2cccc(C#Cc3cccc(NC(=O)c4ccc(N5CCOCC5)c(C(F)(F)F)c4)c3)c12
GI50 (786-0 renal): 2840 nM
TGI (786-0 renal): 7840 nM
GI50 (CAKI-1 renal): 1130 nM
TGI (CAKI-1 renal): 2910 nM
GI50 (NCI-H23 lung): 1370 nM
TGI (NCI-H23 lung): 4600 nM
GI50 (SN12C renal): 1560 nM
TGI (SN12C renal): 5800 nM
GI50 (MCF7 breast): 1800 nM
TGI (MCF7 breast): 7860 nM
GI50 (HOP-92 NSCLC): 768 nM
TGI (HOP-92 NSCLC): 3140 nM
GI50 (SNB-19 CNS): 2750 nM
TGI (SNB-19 CNS): 7390 nM
GI50 (MOLT-4 leukemia): 1310 nM
TGI (MOLT-4 leukemia): 5710 nM
GI50 (UO-31 renal): 567 nM
TGI (UO-31 renal): 2920 nM
GI50 (SR leukemia): 2400 nM
TGI (SR leukemia): > 100000 nM
GI50 (SNB-75 CNS): 1070 nM
TGI (SNB-75 CNS): 2470 nM
GI50 (HS 578T breast): 508 nM
TGI (HS 578T breast): 3770 nM
GI50 (NCI/ADR-RES ovarian): 2250 nM
TGI (NCI/ADR-RES ovarian): 7650 nM
GI50 (T-47D breast): 1060 nM
TGI (T-47D breast): 3680 nM
GI50 (LOX IMVI melanoma): 944 nM
TGI (LOX IMVI melanoma): 2160 nM
GI50 (HCC-2998 colon): 1320 nM
TGI (HCC-2998 colon): 3150 nM
GI50 (SK-OV-3 ovarian): 2090 nM
TGI (SK-OV-3 ovarian): 5250 nM
GI50 (OVCAR-5 ovarian): 599 nM
TGI (OVCAR-5 ovarian): 5260 nM
GI50 (NCI-H460 lung): 1460 nM
TGI (NCI-H460 lung): 3190 nM
GI50 (ACHN renal): 725 nM
TGI (ACHN renal): 4780 nM
GI50 (UACC-62 melanoma): 622 nM
TGI (UACC-62 melanoma): 2550 nM
GI50 (M14 melanoma): 473 nM
TGI (M14 melanoma): 2200 nM
GI50 (PC-3 prostate): 1930 nM
TGI (PC-3 prostate): 6830 nM
GI50 (SF-268 CNS): 1300 nM
TGI (SF-268 CNS): 5350 nM
GI50 (HL-60(TB) leukemia): 1400 nM
TGI (HL-60(TB) leukemia): 10500 nM
GI50 (RPMI-8226 leukemia): 1980 nM
TGI (RPMI-8226 leukemia): 6500 nM
GI50 (SK-MEL-28 melanoma): 867 nM
TGI (SK-MEL-28 melanoma): 2720 nM
GI50 (SK-MEL-5 melanoma): 1560 nM
TGI (SK-MEL-5 melanoma): 3000 nM
GI50 (HOP-62 NSCLC): 1490 nM
TGI (HOP-62 NSCLC): 4390 nM
GI50 (HCT-15 colon): 1540 nM
TGI (HCT-15 colon): 6440 nM
GI50 (SF-295 CNS): 1370 nM
TGI (SF-295 CNS): 5200 nM
GI50 (NCI-H522 lung): 1150 nM
TGI (NCI-H522 lung): 3560 nM
GI50 (U251 CNS): 2060 nM
TGI (U251 CNS): 7410 nM
GI50 (SF-539 CNS): 310 nM
TGI (SF-539 CNS): 1540 nM
GI50 (A549 NSCLC): 1800 nM
TGI (A549 NSCLC): 6050 nM
GI50 (A498 renal): 384 nM
TGI (A498 renal): 2090 nM
GI50 (CCRF-CEM leukemia): 1360 nM
TGI (CCRF-CEM leukemia): 6580 nM
GI50 (SW-620 colon): 1130 nM
TGI (SW-620 colon): 5950 nM
GI50 (BT-549 breast): 2080 nM
TGI (BT-549 breast): 6800 nM
GI50 (HT29 colon): 632 nM
TGI (HT29 colon): 4550 nM
GI50 (NCI-H226 lung): 68.7 nM
TGI (NCI-H226 lung): 8530 nM
GI50 (TK-10 renal): 2050 nM
TGI (TK-10 renal): 4400 nM
GI50 (HCT-116 colon): 653 nM
TGI (HCT-116 colon): 2330 nM
GI50 (EKVX NSCLC): 1610 nM
TGI (EKVX NSCLC): 4170 nM
GI50 (RXF 393 renal): 1020 nM
TGI (RXF 393 renal): 2830 nM
GI50 (IGROV1 ovarian): 682 nM
TGI (IGROV1 ovarian): 3540 nM
GI50 (OVCAR-8 ovarian): 1920 nM
TGI (OVCAR-8 ovarian): 6830 nM
GI50 (OVCAR-3 ovarian): 1490 nM
TGI (OVCAR-3 ovarian): 5060 nM
GI50 (UACC-257 melanoma): 1770 nM
TGI (UACC-257 melanoma): 4380 nM
GI50 (KM12 colon): 1290 nM
TGI (KM12 colon): 2910 nM
GI50 (COLO 205 colon): 525 nM
TGI (COLO 205 colon): 2330 nM
GI50 (OVCAR-4 ovarian): 1060 nM
TGI (OVCAR-4 ovarian): 2980 nM
TGI (K-562 leukemia): 13500 nM
GI50 (MALME-3M melanoma): 540 nM
TGI (MALME-3M melanoma): 2120 nM
GI50 (MDA-MB-231 breast): 720 nM
TGI (MDA-MB-231 breast): 2600 nM
GI50 (MDA-MB-435): 1090 nM
TGI (MDA-MB-435): 3310 nM
GI50 (DU-145 prostate): 1810 nM
TGI (DU-145 prostate): 4370 nM
GI50 (SK-MEL-2 melanoma): 855 nM
TGI (SK-MEL-2 melanoma): 3250 nM
